Source: patent US6984656B2, “Core modified porphyrins” (priority 2001, dated 2006)
pEC50: −log10 of the molar value. Where two headings read alike, the source gives them in different places. Marks after values point to notes of the source that are not given here.

How the values were obtained:
[1] = system: Colo-26 cells; test: Dark and light-induced toxicity toward Colo-26 cells in culture; format: cell-based, murine; settings: for pEC50: 4 J cm^−2 of 590-800 nm light
Protocol: In order to compare relative phototoxicity, the core-modified porphyrins of Table 1 were evaluated in culture for dark and light-induced toxicities toward Colo-26 cells, a murine colon carcinoma cell line.

[2] = Quantum yield for the generation of singlet oxygen; format: physicochemical; settings: aqueous solution
[3] = system: two tumor cell lines; test: Phototoxicity in two tumor cell lines in vitro; format: cell-based
Protocol: The topological and chemical properties of dichalcogenaporphyrins impart unexpected biological properties relative to the corresponding porphyrin derivatives. 5,10,15,20-tetrakis(4-sulfonatophenyl)-21-thiaporphyrin 8 and 21-selenaporphyrin 9 (FIG. 13) were prepared and evaluated the phototoxicity in two tumor cell lines in vitro.

[4] = Single-photon quantum yield for fluorescence; format: physicochemical; settings: for emissiveness relative to dithiaporphyrin analogue: 7 vs 6, 10 vs DH-82; for quantum yield for fluorescence φF (± σ): one-photon, standard TPPS4 in water
Excerpt: In vivo fluorescence techniques have had significant impact on the development of PDT with respect to the pharmacokinetics of sensitizers and to PDT dosimetry. Photofrin® has been used in fluorescent diagnostics and the fluorescence of TPPS4 has been extensively studied. […] The quantum yield standard used in these studies was a freshly prepared solution of TPPS4 (φF =0.12) dissolved in water.

[5] = Rate of photobleaching in phosphate-buffered saline; format: physicochemical; settings: PBS; 570-750 nm light at 500 mW cm^−2; constant initial absorbance
Excerpt: One limitation of PDT dosimetry is the rate of photobleaching of the photosensitizer, which can be problematic with Photofrin® and even more problematic with the bacteriochlorins and the chlorins (such as HPPH).

[6] = system: R3230AC rat mammary adenocarcinoma cells; test: Phototoxicity toward R3230AC cells in culture; format: cell-based; settings: 10 μM, 24 h; 570-800 nm light, 0.9 J cm^−2; 24 h post-irradiation
Protocol: Similar results were obtained with R3230AC rat mammary adenocarcinoma cells in vitro. […] Light-treated cells and dark controls were incubated for 24 h and cell survival was determined. The surviving fraction, 24 h post-irradiation, is shown graphically in FIG. 4c.

[7] = system: BALB/c mice; test: Preliminary toxicity, single intravenous injection in BALB/c mice
[8] = system: Colo-26 tumors; test: PDT against implanted Colo-26 tumors in BALB/c mice; format: in vivo
Protocol: Core-modified porphyrin 6 gave a PDT response in vivo with 694-nm light in BALB/c mice bearing Colo-26 tumors. Animals treated with photosensitizer 6 at 3.25 mg (3.0 μmol)/kg and light required 10.3±0.8 d to reach 400-mm^3 tumor volume, which was more than double the time for control animals (4.3±1.0 d) receiving neither drug nor light (P <0.01).
The animals were irradiated 4 h post-injection with 135 J cm^−2 of 694-nm red light from a dye laser (75 mW cm^−2 for 30 min). […] For comparison purposes, BALB/C mice bearing Colo-26 tumors were given 2.5 mg (4.0 μmol)/kg of Photofrin® as a 5% aqueous dextrose solution and were irradiated 24 h later with 135 J cm^−2 of 630-nm laser light at a power of 75 mW cm^−2 for PDT with Photofrin®.
Animals initially were given i.v. (tail vein) injections of sensitizer at various concentrations (0.05to 5.0 μmol/kg). Mice were restrained at various times thereafter without anesthesia in specially designed holders. Fischer 344 female rats were chemically restrained at various times thereafter. In both models, tumors or normal back skin were exposed to light from a xenon arc lamp with appropriate filters or to a dye laser tuned to the absorption maximum determined by in vivo reflectance measurements. Power density of delivered light typically fell in the range of 10-200 mW cm^−2 evenly distributed to a spot size of roughly 1.5 cm and measured by a radiometer. Several dose rates were explored to examine role/limitation of available oxygen on the photodynamic process. Intratumor temperatures were measured with an Omega HYP-O microthermocouple and, when necessary, a stream of nitrogen gas was used to keep intratumor temperatures below 37° C. Animals were examined and measured daily for the first 14 days post treatment and every other day thereafter until the tumors reached 400 mm^3 in mice or until the tumors double in size for Fischer 344 female rats or for 90 days. Tumor size were measured in two dimensions with a caliper. Time to 400 mm^3 or volume doubling times of tumors from control and PDT-treated groups (8-12 animals per group) were compared statistically using the SAS statistical program (SAS, Inc., Cary, N.C.). A P-value of <0.05 is considered significant. The degree of damage to the normal skin within the irradiation field also were noted. Disappearance of tumor with minimal damage to normal skin is the most desirable response. Animals are considered cured if no tumor regrowth occurs by 90 days. In all studies, three control groups were utilized in addition to the treatment group receiving both sensitizer and light: 1) a complete control receiving neither drug nor light, 2) a group receiving sensitizer only, and 3) a group receiving light only. Representative animals from each of the treatment groups were processed for histology immediately, one day, or two weeks after irradiation. Step sections through the tumor were used to define the boundaries of tumor cell damage and death as a function of distance from the skin surface.

[9] = in vivo; cited from earlier work
[10] = system: mice; settings: 150 mg/kg; cited from earlier work
[11] = system: BFS1 sarcoma; settings: cited from earlier work
[12] = 24 h incubation in dark, survival 24 h later, read-out: effective concentration to give 50% cell-kill of Colo-26 cells in vitro (EC50)
[13] = read-out: EC50 against Colo-26 cells
[14] = 135 J cm^−2, DH-105 2.5, DH-82 0.13, MA-99 0.15 mg/kg, 694 nm 4 h post-injection, Photofrin® 2.5 mg/kg, 630 nm 24 h

Compound: 5,10,15,20-tetrakis(4-sulfonatophenyl)-21-thiaporphyrin [Compound 8]
- pEC50 [1, 12]: < 4.00
- quantum yield for the generation of singlet oxygen φ(^1O2) [2]: 0.80 ± 0.02
- phototoxicity in two tumor cell lines [3]: Neither 21-core-modified porphyrin displayed significant phototoxicity

Compound: O=S(=O)(O)c1ccc(-c2c3nc(c(-c4ccc(S(=O)(=O)O)cc4)c4ccc([se]4)c(-c4ccc(S(=O)(=O)O)cc4)c4nc(c(-c5ccc(S(=O)(=O)O)cc5)c5ccc2[se]5)C=C4)C=C3)cc1 [Compound 7]
- pEC50 [1, 12]: < 4.00
- emissiveness relative to dithiaporphyrin analogue [4]: 10%
- quantum yield for fluorescence φF (± σ) [4]: 8.9 (± 0.4) × 10^−4

Compound: O=S(=O)([O-])c1ccc(-c2c3nc(c(-c4ccc(S(=O)(=O)[O-])cc4)c4ccc([se]4)c(-c4ccc(S(=O)(=O)[O-])cc4)c4nc(c(-c5ccc(S(=O)(=O)[O-])cc5)c5ccc2[nH]5)C=C4)C=C3)cc1.[Na+].[Na+].[Na+].[Na+] [Compound 9]
- phototoxicity in two tumor cell lines [3]: Neither 21-core-modified porphyrin displayed significant phototoxicity

Compound: O=S(=O)([O-])c1ccc(-c2c3nc(c(-c4ccc(F)cc4)c4ccc(s4)c(-c4ccc(F)cc4)c4nc(c(-c5ccc(S(=O)(=O)[O-])cc5)c5ccc2[se]5)C=C4)C=C3)cc1.[Na+].[Na+] [Compound 10]
- pEC50 [1, 12]: 5.68
- emissiveness relative to dithiaporphyrin analogue [4]: 2%
- quantum yield for fluorescence φF (± σ) [4]: 1.4 (± 0.1) × 10^−4
- quantum yield for the generation of singlet oxygen φ(^1O2) [2]: 0.65 ± 0.01

Compound: O=S(=O)([O-])c1ccc(-c2c3nc(c(-c4ccc(F)cc4)c4ccc([se]4)c(-c4ccc(F)cc4)c4nc(c(-c5ccc(S(=O)(=O)[O-])cc5)c5ccc2s5)C=C4)C=C3)cc1.[Na+].[Na+] [Compound 11]
- pEC50 [1, 12]: 5.92
- quantum yield for the generation of singlet oxygen φ(^1O2) [2]: 0.64 ± 0.01

Compound: O=S(=O)([O-])c1ccc(-c2c3nc(c(-c4ccc(C(F)(F)F)cc4)c4ccc(s4)c(-c4ccc(C(F)(F)F)cc4)c4nc(c(-c5ccc(S(=O)(=O)[O-])cc5)c5ccc2s5)C=C4)C=C3)cc1.[Na+].[Na+] [Compound 13]
- pEC50 [1, 12]: < 4.00
- rate of photobleaching (kbleach) [5]: 0.13 ± 0.02 × 10^4 s^−1

Compound: CN(C)c1ccc(-c2c3nc(c(-c4ccc(S(=O)(=O)[O-])cc4)c4ccc(s4)c(-c4ccc(S(=O)(=O)[O-])cc4)c4nc(c(-c5ccc(N(C)C)cc5)c5ccc2s5)C=C4)C=C3)cc1.[Na+].[Na+] [Compound 14]
- pEC50 [1, 12]: 6.22
- phototoxicity relative to Photofrin® toward R3230AC cells (surviving fraction, FIG. 4c) [6]: more phototoxic than Photofrin®
- rate of photobleaching (kbleach) [5]: 0.77 ± 0.04 × 10^4 s^−1
- quantum yield for fluorescence φF (± σ) [4]: <10^−4
- quantum yield for the generation of singlet oxygen φ(^1O2) [2]: 0.60 ± 0.02

Compound: O=C([O-])COc1ccc(-c2c3nc(c(-c4ccccc4)c4ccc(s4)c(-c4ccccc4)c4nc(c(-c5ccc(OCC(=O)[O-])cc5)c5ccc2s5)C=C4)C=C3)cc1.[Na+].[Na+] [Compound 15]
- pEC50 [1, 12]: 6.82
- rate of photobleaching (kbleach) [5]: 0.18 ± 0.02 × 10^4 s^−1

Compound: O=S(=O)([O-])c1ccc(-c2c3nc(c(-c4ccc(F)cc4)c4ccc([se]4)c(-c4ccc(F)cc4)c4nc(c(-c5ccc(S(=O)(=O)[O-])cc5)c5ccc2[se]5)C=C4)C=C3)cc1.[Na+].[Na+] [DH-105]
- pEC50 [1, 13]: 5.10
- gross abnormalities in organs and tissues after sacrifice ([7]; 10 mg/kg i.v., after 90 days): no gross abnormalities were noted
- toxicity and morbidity ([7]; 10 mg/kg, followed 90 days post-injection, normal vivarium light): neither toxicity nor morbidity was observed
- phototoxicity relative to Photofrin® toward R3230AC cells (surviving fraction, FIG. 4c) [6]: more phototoxic than Photofrin®
- rate of photobleaching (kbleach) [5]: 1.44 ± 0.03 × 10^4 s^−1
- cures (no tumor regrowth 90 days post-treatment) [8, 14]: three cures
- mean time to 400 mm^3 of the animals not cured [8, 14]: 17 ± 3 days
- fluorescence emission detected [4]: no detectable emission
- quantum yield for fluorescence φF (± σ) [4]: <10^−4
- quantum yield for the generation of singlet oxygen φ(^1O2) [2]: 0.55 ± 0.02

Compound: CCCCCCOC(C)c1c(C)c2cc3nc(c4c5[nH]c(cc6nc(cc1[nH]2)C(C)=C6CC)c(C)c5C(=O)C4)[C@@H](CCC(=O)O)[C@@H]3C (stereo partly drawn) [HPPH, reference compound]
- pEC50 [1, 13]: 6.52
- EC50 fold lower than for Photofrin® ([1]; Colo-26 cells, 590-800 nm light): 30 fold

Compound: CC(=O)[O-].CC(=O)[O-].CCc1c(CC)c2cc3nc(cnc4cc(OCCOCCOCCOC)c(OCCOCCOCCOC)cc4ncc4nc(cc1[n-]2)C(CCCO)=C4C)C(C)=C3CCCO.O.[Lu+3] [Lu-Tex, lutetium texaphyrin]
- skin photosensitivity [9]: minimal skin photosensitivity

Compound: O=S(=O)(O)c1ccc(-c2c3nc(c(-c4ccc(S(=O)(=O)O)cc4)c4ccc([nH]4)c(-c4ccc(S(=O)(=O)O)cc4)c4nc(c(-c5ccc(S(=O)(=O)O)cc5)c5ccc2[nH]5)C=C4)C=C3)cc1 [TPPS4, 5,10,15,20-Tetrakis (4-sulfonato-phenyl)porphyrin, reference compound]
- pEC50 [1, 12]: 3.90
- time to reach 400-mm^3 tumor volume ([8]; TPPS4 at 10 mg/kg): 6.7 ± 1.1 days
- toxicity at high concentrations [10]: neurotoxicity
- quantum yield for the generation of singlet oxygen φ(^1O2) [2]: 0.71^b

Compound: O=S(=O)([O-])c1ccc(-c2c3nc(c(-c4ccc(S(=O)(=O)[O-])cc4)c4ccc(s4)c(-c4ccc(S(=O)(=O)[O-])cc4)c4nc(c(-c5ccc(S(=O)(=O)[O-])cc5)c5ccc2[nH]5)C=C4)C=C3)cc1.[Na+].[Na+].[Na+].[Na+] [sulfonated 1]
- efficacy in vivo relative to chlorin e6 ([11]; BFS1 sarcoma-bearing mice): comparable to chlorin e6 for efficacy

Compound: O=S(=O)([O-])c1ccc(-c2c3nc(c(-c4ccc(S(=O)(=O)[O-])cc4)c4ccc([se]4)c(-c4ccc(S(=O)(=O)[O-])cc4)c4nc(c(-c5ccc(S(=O)(=O)[O-])cc5)c5ccc2[nH]5)C=C4)C=C3)cc1.[Na+].[Na+].[Na+].[Na+] [sulfonated 2]
- skin photosensitization ([11]; animals irradiated 24 h post-injection): no skin photosensitization was observed

Compound: benzoporphyrin derivative
- duration of skin photosensitivity [9]: 3 to 5 days
